Test results published in paper PMC6934184, “Selective DNA-PKcs inhibition extends the therapeutic index of localized radiotherapy and chemotherapy” (The Journal of Clinical Investigation, 2019).

Target: T1, SPHK2 (Homo sapiens, UniProt Q9NRA0)
T1 construct: purchased Thermo Fisher Scientific (Life Technologies) SelectScreen
Assay: SelectScreen Adapta
Assay type: biochemical
Conditions: ATP 10 µM
Experimental: The in vitro kinase selectivity of NU5455 was determined using the SelectScreen Broad Assay Panel (Thermo Fisher Scientific) involving activity and binding assays (Supplemental Table 1). […] Class IA PI3Ks were measured using the p85α subunit.
Kinase [ATP] % Assay Kinase [ATP] % Assay Kinase [ATP] % Assay Kinase [ATP] % Assay […]
MAPK14 (p38 alpha) Km app 9.7 Z SPHK2 10 3.1 A ICK n/a 0.0 L SGKL (SGK3) Km app -4.6 Z […]
SGK (SGK1) Km app 8.5 Z MAP4K2 (GCK) Km app 2.7 Z TLK2 n/a -0.3 L STK38 (NDR) n/a -5.9 L
MERTK (cMER) Km app 8.3 Z CDK2/cyclin A Km app 2.7 Z TGFBR1 (ALK5) n/a -0.4 L MATK (HYL) Km app -6.3 Z
FYN Km app 8.3 Z EPHA1 Km app 2.7 Z CLK3 Km app -0.5 Z ABL1 E255K Km app -6.6 Z
TEC n/a 8.1 L CDK2/cyclin E1 n/a 2.7 L MAP3K14 (NIK) n/a -0.5 L STK17A (DRAK1) n/a -6.6 L
KIT V654A n/a 8.1 L TESK2 n/a 2.7 L AKT3 (PKB gamma) Km app -0.5 Z JAK2 JH1 JH2 Km app -6.7 Z
ROS1 Km app 8.0 Z SPHK1 Km app 2.7 A MAP3K9 (MLK1) Km app -0.5 Z PRKACB (PRKAC beta) n/a -6.8 L
FGFR3 K650E Km app 7.9 Z AMPK A2/B1/G1 Km app 2.6 Z IKBKB (IKK beta) Km app -0.6 Z PDGFRA (PDGFR alpha) Km app -6.8 Z
RAF1 (cRAF) Y340D Y341D 100 7.9 Z DYRK3 Km app 2.6 Z CAMK2A (CaMKII alpha) Km app -0.6 Z NEK9 Km app -7.2 Z
PI4KA (PI4K alpha) 10 7.8 A CSNK1D (CK1 delta) Km app 2.6 Z PRKCB1 (PKC beta I) Km app -0.7 Z PDK1 Km app -7.3 Z
HIPK2 Km app 7.8 Z ACVR2A n/a 2.5 L TTK n/a -0.7 L RPS6KB1 (p70S6K) Km app -7.8 Z […]

T1 sequence (Q9NRA0 whole entry): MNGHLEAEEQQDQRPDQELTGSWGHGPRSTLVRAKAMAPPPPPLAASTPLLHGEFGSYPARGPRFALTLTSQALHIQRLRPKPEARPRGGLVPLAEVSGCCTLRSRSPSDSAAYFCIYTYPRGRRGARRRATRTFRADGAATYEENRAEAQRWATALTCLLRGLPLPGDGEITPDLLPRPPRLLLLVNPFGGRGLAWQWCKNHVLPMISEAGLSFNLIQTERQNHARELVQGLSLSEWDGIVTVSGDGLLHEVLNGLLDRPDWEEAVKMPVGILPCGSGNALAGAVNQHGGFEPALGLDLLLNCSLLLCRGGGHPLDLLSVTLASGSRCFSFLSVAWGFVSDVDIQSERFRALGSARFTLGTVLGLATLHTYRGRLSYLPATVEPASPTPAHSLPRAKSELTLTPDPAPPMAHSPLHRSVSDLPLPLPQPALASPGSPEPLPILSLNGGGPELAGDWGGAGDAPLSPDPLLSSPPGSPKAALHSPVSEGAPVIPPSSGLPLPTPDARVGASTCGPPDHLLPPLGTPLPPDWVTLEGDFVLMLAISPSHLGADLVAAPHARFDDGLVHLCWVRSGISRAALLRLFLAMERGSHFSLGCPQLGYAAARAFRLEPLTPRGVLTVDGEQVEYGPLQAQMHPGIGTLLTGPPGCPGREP

`CN(C(=O)CN1CCOCC1)c1ccc2sc3c(-c4cccc5c(=O)cc(N6CC7CCC(C6)O7)oc45)cccc3c2c1` [NU5455] gave an inhibition at 1 µM of 3.1%.
